In US20160310613A1, “METHODS AND COMPOSITIONS FOR OVERCOMING DRUG-RESISTANCE IN CANCER BY TARGETED DELIVERY OF PRO-DRUG-NANO-POLYMERS” (priority 2015, published 2016):
Values after ≈ are worked out from the molar mass of the structure shown.

Experiments:
[1] = tested on: MCF-7 MDR Doxorubicin resistant cells; assay: Epi-fluorescent microscopy of doxorubicin delivery and retention
[2] = tested on: SKOV-3 TR resistant Ovarian cancer cells; assay: cells; format: cell-based
Procedure: Human ovarian cancer (SKOV-3 TR) resistant cells were cultured using the same protocol described for culturing SKOV-3 TR resistant cells in Example 8 above. Cultured cells (SKOV-3 TR) were incubated with bispecific anti-Her-2 Affibody-anti-DTPA antibody at a concentration of 20 μg/ml for 24 hours at 37° C. […] After 24-48 h incubation at 37° C., viability was assessed by Trypan Blue exclusion test using CellTiter Blue® (Promega, Madison, Wis.) following the manufacturer's protocol as described above in Example 8.
SKOV-3 sensitive and SKOV-3 TR resistant Ovarian cancer cells were cultured using the same protocol described in Examples 8 and 9 above. Cultured cells were incubated with bispecific anti-Her-2 Affibody-anti-DTPA antibody.

[3] = tested on: SKOV-3 sensitive Ovarian cancer cells; assay: cells; settings: Homo sapiens, SK-OV-3, read-out: IC50 value in SKOV-3 sensitive cells
Procedure: (§1) Human ovarian cancer (SKOV-3) sensitive cells were grown in six well plates. Aliquots of 5000 cells/well were seeded in the cell culture treated 96 well plates and were grown for 24 hours. Cultured cells (SKOV-3) were incubated with bispecific anti-Her-2 Affibody-anti-DTPA antibody at a concentration of 20 or 40 μg/ml for 24 hours at 37° C. […] After 24 h incubation at 37° C., viability was assessed by Trypan Blue exclusion test using CellTiter Blue® (Promega, Madison, Wis.) following the manufacturer's protocol. Briefly, media was removed from plates containing cells incubated with agent-polymer conjugates. The plates were washed 2× with 200 μl of complete medium and then incubated with 50 μl of 1:50 dilution of CellTiter Blue® reagent for 2 hours. Cell viability was then evaluated by measuring the fluorescence (excitation 530 nm, emission 590 nm) using a Synergy HT multi-21 detection microplate reader (Biotek, Winooski, Vt.). Cells treated with complete media alone were used as controls to calculate the 100% cell viability and the studies were carried out in triplicates in at least 3 different assays. […] The above studies were repeated for 48 h incubation time.

[4] = tested on: SKOV-3 sensitive Ovarian cancer cells; settings: cells pretargeted with anti-HER2/neu affibody, FIG. 7
Procedure: as §1

Molecule: COc1cccc2c1C(=O)c1c(O)c3c(c(O)c1C2=O)C[C@@](O)(C(=O)CO)C[C@@H]3O[C@H]1C[C@H](N)[C@H](O)[C@H](C)O1 [free Dox, doxorubicin]
- Doxorubicin fluorescence in cells ([1]; 15 μg/ml, incubated 5 h, FIG. 8A): nuclear sequestration
- Doxorubicin uptake in cells ([1]; incubated 1 h, then Dox free medium 4 h, FIG. 8B): less Dox uptake occurred

Molecule: CC(=O)O[C@H]1C(=O)[C@@]2(C)[C@H]([C@H](OC(=O)c3ccccc3)[C@]3(O)C[C@H](OC(=O)[C@H](O)[C@@H](NC(=O)c4ccccc4)c4ccccc4)C(C)=C1C3(C)C)[C@]1(OC(C)=O)CO[C@@H]1C[C@@H]2O [free PTXL, Paclitaxel]
- IC50 ([2]; Homo sapiens, SKOV3TR, free drug, FIG. 7): 0.936 µg/mL (≈ 1.1 µM)
- IC50 in SKOV-3 TR resistant cells relative to SKOV-3 sensitive cells ([2]; ratio resistant/sensitive): about 10 times higher
- IC50 [3]: 0.089 µg/mL (≈ 0.104 µM)

Molecule: DTPA-Doxorubicin-Poly Glutamic acid [D-Dox-PGA]
- Doxorubicin retention in cells ([1]; pretargeted with bispecific biotinylated-anti-DTPA antibody, 1 h, then Dox free media 4 h, FIG. 8C): more Dox is retained

Molecule: DTPA-Paclitaxel-Poly Glutamic acid [D-PTXL-PGA]
- Amount needed to obtain 50% cell killing in SKOV-3 TR cells relative to free PTXL ([2]; SKOV-3 TR cells): 5 times less
- IC50 value in paclitaxel resistant ovarian cancer cells ([2]; cells pretargeted with anti-HER2/neu affibody, FIG. 7): 0.069 µg/mL
- Concentration needed to obtain 50% cell killing in SKOV-3 TR resistant relative to SKOV-3 sensitive cells ([2]; ratio resistant/sensitive): 2 time more
- IC50 value in paclitaxel sensitive ovarian cancer cells [4]: 0.089 µg/mL
